Test results as given in paper PMC9120017, “Inhibition mechanism of the chloride channel TMEM16A by the pore blocker 1PBC” (Nature Communications, 2022).

Biological target: T1, wild-type mouse TMEM16A (Mus musculus, UniProt Q8BHY3)
T1 construct: expressed in transfected cells; host or cells: HEK293T
T1 sequence (Q8BHY3 1-960): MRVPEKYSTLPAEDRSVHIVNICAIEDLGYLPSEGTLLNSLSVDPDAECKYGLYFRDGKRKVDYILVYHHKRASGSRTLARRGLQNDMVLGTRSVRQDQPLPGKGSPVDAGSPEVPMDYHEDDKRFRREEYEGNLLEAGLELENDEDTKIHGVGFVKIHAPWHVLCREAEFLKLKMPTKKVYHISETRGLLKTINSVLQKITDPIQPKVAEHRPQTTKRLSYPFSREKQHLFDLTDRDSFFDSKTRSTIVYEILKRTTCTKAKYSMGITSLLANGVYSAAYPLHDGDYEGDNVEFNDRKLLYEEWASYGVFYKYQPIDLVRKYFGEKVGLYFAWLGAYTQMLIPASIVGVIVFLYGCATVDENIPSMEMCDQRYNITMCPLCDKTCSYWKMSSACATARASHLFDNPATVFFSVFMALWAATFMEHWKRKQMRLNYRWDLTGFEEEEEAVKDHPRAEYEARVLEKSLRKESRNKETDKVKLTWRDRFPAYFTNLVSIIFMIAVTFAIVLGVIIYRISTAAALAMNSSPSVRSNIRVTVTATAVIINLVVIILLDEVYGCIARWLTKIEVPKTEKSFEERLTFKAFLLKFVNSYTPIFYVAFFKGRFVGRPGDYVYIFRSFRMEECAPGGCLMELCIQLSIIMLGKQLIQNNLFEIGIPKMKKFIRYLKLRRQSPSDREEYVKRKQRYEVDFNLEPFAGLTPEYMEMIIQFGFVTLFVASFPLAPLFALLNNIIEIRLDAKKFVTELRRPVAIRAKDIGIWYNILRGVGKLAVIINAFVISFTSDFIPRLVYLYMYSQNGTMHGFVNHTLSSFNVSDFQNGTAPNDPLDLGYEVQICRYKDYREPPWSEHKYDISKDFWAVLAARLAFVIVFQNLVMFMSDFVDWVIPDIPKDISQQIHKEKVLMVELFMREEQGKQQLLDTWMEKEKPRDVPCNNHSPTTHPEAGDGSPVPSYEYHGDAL
Assay: Ultra-fast concentration-jump experiments, kinetics of 1PBC block in inside-out patches
Type: cell-based
Details: 3 µM 1PBC; excised patches, ultra-fast perfusion
Description: HEK293T cells were transfected with 3–4 μg DNA per 6 cm Petri dish using the calcium phosphate co-precipitation method and were used within 24–96 h after transfection. Recordings were performed on inside-out patches excised from HEK293T cells expressing the construct of interest. Patch pipettes were pulled from borosilicate glass capillaries (O.D. 1.5 mm, I.D. 0.86 mm, Sutter Instrument) and were fire-polished with a microforge (Narishige) before use. Pipette resistance was typically 3–8 MΩ when filled with the recording solutions detailed below. Seal resistance was typically 4 GΩ or higher. Voltage-clamp recordings were made using Axopatch 200B, Digidata 1550, and Clampex 10.7 (Molecular Devices). Analog signals were filtered with the in-built 4-pole Bessel filter at 10 kHz and were digitized at 20 kHz. Solution exchange was achieved using a gravity-fed system through a theta glass pipette mounted on an ultra-fast piezo-driven stepper (Siskiyou). […] All recordings were performed at 20 °C.
Supplementary Fig. 2: State dependence of 1PBC block. a, Kinetics of 1PBC block at an intermediate 1PBC concentration and the indicated sub- saturating Ca2+ concentrations in ultra-fast concentration- jump experiments at + 8 0 m V in the inside- out configuration. 1PBC was applied from the intracellular side. […] 6 µM (as determined in Fig. 2a, b) and kon = 1 x 106 M-1s-1. […]

Kinetics of block (time constant): ~ 50 ms
SMILES: N#Cc1c(C(F)(F)F)cc(O)n2c1nc1ccccc12 [1PBC]
